Test results reported in ChEMBL document CHEMBL1777727, “The role of the 4''-hydroxyl on motilin agonist potency in the 9-dihydroerythromycin series” (Bioorg Med Chem Lett, 2011).
pEC50, pIC50: −log10 of the molar value. Converted amounts (≈) assume the structure as drawn.

Assays:
Motilin receptor = Motilin receptor (Oryctolagus cuniculus, UniProt A5A4K8); assay: Agonist activity at motilin receptor in rabbit smooth muscle assessed as maximal possible tissue contraction; type: functional
[1] = target: Motilin receptor (Oryctolagus cuniculus) (UniProt A5A4K8); assay: Agonist activity at motilin receptor in rabbit smooth muscle assessed as tachyphylaxis at EC90 concentration after 4th dose; type: functional
Chain of Motilin receptor (Oryctolagus cuniculus) (A5A4K8 as listed by the source): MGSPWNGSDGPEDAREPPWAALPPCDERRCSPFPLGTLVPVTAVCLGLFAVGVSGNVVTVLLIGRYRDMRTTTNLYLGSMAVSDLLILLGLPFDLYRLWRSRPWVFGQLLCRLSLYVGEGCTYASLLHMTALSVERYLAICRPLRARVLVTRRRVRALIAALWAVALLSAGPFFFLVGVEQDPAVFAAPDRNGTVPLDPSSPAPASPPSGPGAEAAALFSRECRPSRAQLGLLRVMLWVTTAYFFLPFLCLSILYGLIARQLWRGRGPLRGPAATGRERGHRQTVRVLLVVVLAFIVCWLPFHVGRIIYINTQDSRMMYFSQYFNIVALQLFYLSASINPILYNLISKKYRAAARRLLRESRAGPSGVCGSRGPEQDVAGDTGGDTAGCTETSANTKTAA

Streptococcus pneumoniae = assay: Antimicrobial activity against erythromycin-sensitive Streptococcus pneumoniae ATCC 6301; type: functional
hERG (KCNH2) [2] = target: T1, hERG (KCNH2) (Homo sapiens, UniProt Q12809); assay: Inhibition of human ERG at 30 uM
T1 sequence (Q12809 whole entry): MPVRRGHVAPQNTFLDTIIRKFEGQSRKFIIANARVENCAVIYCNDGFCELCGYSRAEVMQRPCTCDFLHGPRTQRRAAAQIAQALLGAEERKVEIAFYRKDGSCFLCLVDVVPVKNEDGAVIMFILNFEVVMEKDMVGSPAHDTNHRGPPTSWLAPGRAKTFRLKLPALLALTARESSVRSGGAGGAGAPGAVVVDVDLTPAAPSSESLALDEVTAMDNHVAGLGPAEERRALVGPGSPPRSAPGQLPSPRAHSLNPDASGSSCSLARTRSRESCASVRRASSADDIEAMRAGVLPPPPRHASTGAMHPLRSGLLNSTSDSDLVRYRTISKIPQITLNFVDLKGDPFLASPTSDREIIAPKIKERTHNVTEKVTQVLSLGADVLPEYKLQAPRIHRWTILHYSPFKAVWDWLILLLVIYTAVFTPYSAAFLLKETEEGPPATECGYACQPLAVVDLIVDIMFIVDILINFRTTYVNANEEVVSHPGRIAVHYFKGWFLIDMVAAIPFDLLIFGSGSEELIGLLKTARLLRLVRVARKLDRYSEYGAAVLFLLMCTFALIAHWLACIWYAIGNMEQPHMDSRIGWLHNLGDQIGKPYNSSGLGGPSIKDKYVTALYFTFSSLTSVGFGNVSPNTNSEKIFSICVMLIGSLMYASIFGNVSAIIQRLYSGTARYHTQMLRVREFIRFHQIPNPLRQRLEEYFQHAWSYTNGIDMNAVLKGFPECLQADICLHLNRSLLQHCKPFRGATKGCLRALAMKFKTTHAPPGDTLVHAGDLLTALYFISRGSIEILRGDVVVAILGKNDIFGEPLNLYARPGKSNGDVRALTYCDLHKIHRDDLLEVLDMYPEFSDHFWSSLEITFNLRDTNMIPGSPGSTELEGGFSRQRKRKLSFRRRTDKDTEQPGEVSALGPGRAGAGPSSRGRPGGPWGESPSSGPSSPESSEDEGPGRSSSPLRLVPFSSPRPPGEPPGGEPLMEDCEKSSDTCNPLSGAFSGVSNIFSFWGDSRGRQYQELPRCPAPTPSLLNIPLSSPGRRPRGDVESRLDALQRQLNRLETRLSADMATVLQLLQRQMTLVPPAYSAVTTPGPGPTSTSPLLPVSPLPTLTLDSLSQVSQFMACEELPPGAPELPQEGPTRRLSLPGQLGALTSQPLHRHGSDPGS

hERG (KCNH2) [3] = target: T1, hERG (KCNH2); assay: Inhibition of human ERG at 300 uM
[4] = target: Voltage-gated inwardly rectifying potassium channel KCNH2 (Homo sapiens, UniProt Q12809); assay: Inhibition of human ERG
Chain of Voltage-gated inwardly rectifying potassium channel KCNH2 (Q12809 whole entry): as above

Chain of Motilin receptor (A5A4K8 whole entry): as the sequence (A5A4K8 as listed by the source) above

| SMILES | pEC50 (Motilin receptor) | Activity [1] [%] | MIC (Streptococcus pneumoniae) [µg/mL] | inhibition at 30 µM (hERG (KCNH2) [2]) [%] | inhibition at 300 µM (hERG (KCNH2) [3]) [%] | pIC50 [4] |
| --- | --- | --- | --- | --- | --- | --- |
| CC[C@H]1OC(=O)[C@H](C)[C@@H](O[C@H]2C[C@@](C)(OC)[C@@H](O)[C@H](C)O2)[C@H](C)[C@@H](O[C@@H]2O[C@H](C)C[C@H](N(C)C3CCC3)[C@H]2O)[C@](C)(O)C[C@@H](C)[C@H](O)[C@H](C)[C@@H](O)[C@]1(C)O | 6.46 |  |  |  |  |  |
| CC[C@H]1OC(=O)[C@H](C)[C@@H](O[C@H]2C[C@@](C)(OC)[C@@H](O)[C@H](C)O2)[C@H](C)[C@@H](O[C@@H]2O[C@H](C)C[C@H](N(C)CC(C)(C)O)[C@H]2O)[C@](C)(O)C[C@@H](C)[C@H](O)[C@H](C)[C@@H](O)[C@]1(C)O | 7.00 |  |  |  |  |  |
| CC[C@H]1OC(=O)[C@H](C)[C@@H](O[C@H]2C[C@@](C)(OC)CC(C)O2)[C@H](C)[C@@H](O[C@@H]2O[C@H](C)C[C@H](N(C)CC)[C@H]2O)C2(C)CC(C)=C(O2)[C@H](C)[C@@H](O)[C@H]1C (single isomer, unassigned) |  | 9 |  |  |  |  |
| CC[C@H]1OC(=O)[C@H](C)[C@@H](O[C@H]2C[C@@](C)(OC)[C@@H](O)[C@H](C)O2)[C@H](C)[C@@H](O[C@@H]2O[C@H](C)C[C@H](N(C)CCO)[C@H]2O)[C@](C)(O)C[C@@H](C)[C@H](O)[C@H](C)[C@@H](O)[C@]1(C)O | 6.68 |  |  |  |  |  |
| CC[C@H]1OC(=O)[C@H](C)[C@@H](O[C@H]2C[C@@](C)(OC)[C@@H](O)[C@H](C)O2)[C@H](C)[C@@H](O[C@@H]2O[C@H](C)C[C@H](N(C)C(C)C)[C@H]2O)[C@]2(C)CC(C)=C(O2)[C@H](C)C(=O)[C@]1(C)OC |  | 22 |  |  |  |  |
| CC[C@H]1OC(=O)[C@H](C)[C@@H](O[C@H]2C[C@@](C)(OC)C[C@H](C)O2)[C@H](C)[C@@H](O[C@@H]2O[C@H](C)C[C@H](N(C)C3CCC3)[C@H]2O)[C@](C)(O)C[C@@H](C)[C@H](O)[C@H](C)[C@@H](O)[C@]1(C)O | 6.92 |  | > 128 | 92 | 100 |  |
| CC[C@H]1OC(=O)[C@H](C)[C@@H](O[C@H]2C[C@@](C)(OC)[C@@H](O)[C@H](C)O2)[C@H](C)[C@@H](O[C@@H]2O[C@H](C)C[C@H](N(C)C(C)C)[C@H]2O)[C@](C)(O)C[C@@H](C)[C@H](OCC(N)=O)[C@H](C)[C@@H](O)[C@]1(C)O |  |  |  |  | 29 |  |
| CC[C@H]1OC(=O)[C@H](C)[C@@H](O[C@H]2C[C@@](C)(OC)[C@@H](O)[C@H](C)O2)[C@H](C)[C@@H](O[C@@H]2O[C@H](C)C[C@H](N(C)C[C@H](C)O)[C@H]2O)[C@](C)(O)C[C@@H](C)[C@H](O)[C@H](C)[C@@H](O)[C@]1(C)O | 6.44 |  |  |  |  |  |
| CC[C@H]1OC(=O)[C@H](C)[C@@H](O[C@H]2C[C@@](C)(OC)[C@@H](O)[C@H](C)O2)[C@H](C)[C@@H](O[C@@H]2O[C@H](C)C[C@H](N(C)C(C)C)[C@H]2O)[C@](C)(O)C[C@@H](C)[C@H](OCC(=O)N(C)C)[C@H](C)[C@@H](O)[C@]1(C)O |  |  |  |  | 51 |  |

More lines, main results first:

| pEC50 (Motilin receptor) | Activity [1] [%] | MIC (Streptococcus pneumoniae) [µg/mL] | SMILES | inhibition at 30 µM (hERG (KCNH2) [2]) [%] | inhibition at 300 µM (hERG (KCNH2) [3]) [%] | pIC50 [4] |
| --- | --- | --- | --- | --- | --- | --- |
| 7.62 |  | 128 (≈ 165 µM) | CC[C@H]1OC(=O)[C@H](C)[C@@H](O[C@H]2C[C@@](C)(OC)C[C@H](C)O2)[C@H](C)[C@@H](O[C@@H]2O[C@H](C)C[C@H](N(C)CC(C)(C)O)[C@H]2O)[C@](C)(O)C[C@@H](C)[C@H](O)[C@H](C)[C@@H](O)[C@]1(C)O | 86 | 100 |  |
| 6.85 |  | 128 (≈ 168 µM) | CC[C@H]1OC(=O)[C@H](C)[C@@H](O[C@H]2C[C@@](C)(OC)C[C@H](C)O2)[C@H](C)[C@@H](O[C@@H]2O[C@H](C)C[C@H](N(C)C[C@H](C)O)[C@H]2O)[C@](C)(O)C[C@@H](C)[C@H](O)[C@H](C)[C@@H](O)[C@]1(C)O | 89 | 100 |  |
| 7.23 | 88 | 64 (≈ 85.6 µM) | CC[C@H]1OC(=O)[C@H](C)[C@@H](O[C@H]2C[C@@](C)(OC)C[C@H](C)O2)[C@H](C)[C@@H](O[C@@H]2O[C@H](C)C[C@H](N(C)C(C)C)[C@H]2O)[C@](C)(O)C[C@@H](C)[C@H](O)[C@H](C)[C@@H](O)[C@]1(C)O | 74 |  |  |
| 6.72 |  | 128 (≈ 154 µM) | CC[C@H]1OC(=O)[C@H](C)[C@@H](O[C@H]2C[C@@](C)(OC)C[C@H](C)O2)[C@H](C)[C@@H](O[C@@H]2O[C@H](C)C[C@H](N(C)C(C)C)[C@H]2O)[C@](C)(O)C[C@@H](C)[C@H](OCC(=O)N(C)C)[C@H](C)[C@@H](O)[C@]1(C)O | 50 | 100 |  |
| 7.44 |  | > 128 | CC[C@H]1OC(=O)[C@H](C)[C@@H](O[C@H]2C[C@@](C)(OC)C[C@H](C)O2)[C@H](C)[C@@H](O[C@@H]2O[C@H](C)C[C@H](N(C)C(C)C)[C@H]2O)[C@](C)(O)C[C@@H](C)[C@H](OCC(N)=O)[C@H](C)[C@@H](O)[C@]1(C)O | 28 | 86 |  |
| < 5.30 |  |  | CC[C@H]1OC(=O)[C@H](C)[C@@H](O[C@H]2C[C@@](C)(OC)C[C@H](C)O2)[C@H](C)[C@@H](O[C@@H]2O[C@H](C)C[C@H](N(C)CC(=O)NC)[C@H]2O)[C@](C)(O)C[C@@H](C)[C@H](O)[C@H](C)[C@@H](O)[C@]1(C)O |  |  |  |
| 7.77 |  | 128 (≈ 156 µM) | CC[C@H]1OC(=O)[C@H](C)[C@@H](O[C@H]2C[C@@](C)(OC)C[C@H](C)O2)[C@H](C)[C@@H](O[C@@H]2O[C@H](C)C[C@H](N(C)C(C)C)[C@H]2O)[C@](C)(O)C[C@@H](C)[C@H](OCC(=O)NC)[C@H](C)[C@@H](O)[C@]1(C)O | 57 | 97 | 4.52 |
| 7.20 | 94 | 2 (≈ 2.67 µM) | CC[C@H]1OC(=O)[C@H](C)[C@@H](O[C@H]2C[C@@](C)(OC)C[C@H](C)O2)[C@H](C)[C@@H](O[C@@H]2O[C@H](C)C[C@H](N(C)CCO)[C@H]2O)[C@](C)(O)C[C@@H](C)[C@H](O)[C@H](C)[C@@H](O)[C@]1(C)O | 68 |  |  |
